Data from patent US20100272825A1, “METHOD OF DISINFECTING CARCASSES” (JOHNSONDIVERSEY, INC., priority 2006, published 2010).
Several values for one entry are separate records, joined by “and”; a condition that tells them apart may be missing. Equal values may be shown once.

Key:
[1] = system: Salmonella typhi, ATCC # 6539; assay: Sanitizing effectiveness: modified Germicidal and Detergent Sanitizing Action of Disinfectants, A.O.A.C.; type: cell-based; details: 1 ppm Chlorine Dioxide; for Survivors: initial 116,000,000 org/ml
Description: (§1) The invention will be further appreciated in light of the following detailed examples. In these examples, a chlorine dioxide solution was obtained by forming chlorous acid from an ion exchange resin, running this through a platinum catalyst to form chlorine dioxide. The chlorine dioxide obtained from the ion exchange resin catalyst combination was generally at about 650-750 ppm at a pH of about 2, which was then diluted with an acid solution of sodium bisulfate to reach the desired use concentration as set forth in the examples.

[2] = system: Salmonella typhi, ATCC # 6359; assay: AOAC Chlorine (Available) in Disinfectants, subculture series; type: cell-based; parameters: key to Subculture Series 1, growth / Subculture Series 10, growth / Subculture Series 2, growth / Subculture Series 3, growth / Subculture Series 4, growth / Subculture Series 5, growth / Subculture Series 6, growth / Subculture Series 7, growth / Subculture Series 8, growth / Subculture Series 9, growth: + = growth; − = no growth
Description: as §1

[3] = pH 2.0, contact 10 seconds 25° C.
[4] = pH 2.5, contact 10 seconds 25° C.
[5] = pH 3.0, contact 10 seconds 25° C.
[6] = pH 3.5, contact 10 seconds 25° C.
[7] = pH 4.0, contact 10 seconds 25° C.

[O][Cl+][O-] [Chlorine Dioxide, chlorine dioxide]
>2,500,000: Survivors [1, 5] | Survivors [1, 6] | Survivors [1, 7]
−: Subculture Series 1, growth ([2]; ClO2 12 ppm, pH = 2.50) | Subculture Series 2, growth ([2]; ClO2 12 ppm, pH = 2.50) | Subculture Series 3, growth ([2]; ClO2 12 ppm, pH = 2.50) | Subculture Series 4, growth ([2]; ClO2 12 ppm, pH = 2.50) | Subculture Series 1, growth ([2]; ClO2 12 ppm, pH = 3.82) | Subculture Series 2, growth ([2]; ClO2 12 ppm, pH = 3.82) | Subculture Series 1, growth ([2]; ClO2 15 ppm, pH = 2.50) | Subculture Series 2, growth ([2]; ClO2 15 ppm, pH = 2.50) | Subculture Series 3, growth ([2]; ClO2 15 ppm, pH = 2.50) | Subculture Series 4, growth ([2]; ClO2 15 ppm, pH = 2.50) | Subculture Series 5, growth ([2]; ClO2 15 ppm, pH = 2.50) | Subculture Series 6, growth ([2]; ClO2 15 ppm, pH = 2.50) | Subculture Series 7, growth ([2]; ClO2 15 ppm, pH = 2.50) | Subculture Series 8, growth ([2]; ClO2 15 ppm, pH = 2.50) | Subculture Series 1, growth ([2]; ClO2 15 ppm, pH = 3.75) | Subculture Series 2, growth ([2]; ClO2 15 ppm, pH = 3.75) | Subculture Series 3, growth ([2]; ClO2 15 ppm, pH = 3.75) | Subculture Series 4, growth ([2]; ClO2 15 ppm, pH = 3.75) | Subculture Series 5, growth ([2]; ClO2 15 ppm, pH = 3.75)
> 100 ppm and < 200 ppm: germicidal efficacy expressed as equivalent concentration of sodium hypochlorite ([2]; 15 ppm of ClO2 at pH 3.75)
<97.845%: % Reduction [1, 5] | % Reduction [1, 6] | % Reduction [1, 7]
920,000: Survivors [1, 4]
1,040,000: Survivors [1, 3]
+: Subculture Series 5, growth ([2]; ClO2 12 ppm, pH = 2.50) | Subculture Series 6, growth ([2]; ClO2 12 ppm, pH = 2.50) | Subculture Series 7, growth ([2]; ClO2 12 ppm, pH = 2.50) | Subculture Series 8, growth ([2]; ClO2 12 ppm, pH = 2.50) | Subculture Series 9, growth ([2]; ClO2 12 ppm, pH = 2.50) | Subculture Series 10, growth ([2]; ClO2 12 ppm, pH = 2.50) | Subculture Series 3, growth ([2]; ClO2 12 ppm, pH = 3.82) | Subculture Series 4, growth ([2]; ClO2 12 ppm, pH = 3.82) | Subculture Series 5, growth ([2]; ClO2 12 ppm, pH = 3.82) | Subculture Series 6, growth ([2]; ClO2 12 ppm, pH = 3.82) | Subculture Series 7, growth ([2]; ClO2 12 ppm, pH = 3.82) | Subculture Series 8, growth ([2]; ClO2 12 ppm, pH = 3.82) | Subculture Series 9, growth ([2]; ClO2 12 ppm, pH = 3.82) | Subculture Series 10, growth ([2]; ClO2 12 ppm, pH = 3.82) | Subculture Series 9, growth ([2]; ClO2 15 ppm, pH = 2.50) | Subculture Series 10, growth ([2]; ClO2 15 ppm, pH = 2.50) | Subculture Series 6, growth ([2]; ClO2 15 ppm, pH = 3.75) | Subculture Series 7, growth ([2]; ClO2 15 ppm, pH = 3.75) | Subculture Series 8, growth ([2]; ClO2 15 ppm, pH = 3.75) | Subculture Series 9, growth ([2]; ClO2 15 ppm, pH = 3.75) | Subculture Series 10, growth ([2]; ClO2 15 ppm, pH = 3.75)
99.207%: % Reduction [1, 4]
200 ppm: germicidal efficacy expressed as equivalent concentration of sodium hypochlorite ([2]; 15 ppm of ClO2 at pH 2.5)
99.103%: % Reduction [1, 3]

[Na+].[O-]Cl [NaOCl, sodium hypochlorite, reference compound]
+: Subculture Series 2, growth ([2]; NaOCl 50 ppm) | Subculture Series 3, growth ([2]; NaOCl 50 ppm) | Subculture Series 4, growth ([2]; NaOCl 50 ppm) | Subculture Series 5, growth ([2]; NaOCl 50 ppm) | Subculture Series 5, growth ([2]; NaOCl 100 ppm) | Subculture Series 6, growth ([2]; NaOCl 100 ppm) | Subculture Series 7, growth ([2]; NaOCl 100 ppm) | Subculture Series 8, growth ([2]; NaOCl 100 ppm) | Subculture Series 9, growth ([2]; NaOCl 100 ppm) | Subculture Series 10, growth ([2]; NaOCl 100 ppm) | Subculture Series 8, growth ([2]; NaOCl 200 ppm) | Subculture Series 9, growth ([2]; NaOCl 200 ppm) | Subculture Series 10, growth ([2]; NaOCl 200 ppm)
−: Subculture Series 1, growth ([2]; NaOCl 50 ppm) | Subculture Series 1, growth ([2]; NaOCl 100 ppm) | Subculture Series 2, growth ([2]; NaOCl 100 ppm) | Subculture Series 3, growth ([2]; NaOCl 100 ppm) | Subculture Series 4, growth ([2]; NaOCl 100 ppm) | Subculture Series 1, growth ([2]; NaOCl 200 ppm) | Subculture Series 2, growth ([2]; NaOCl 200 ppm) | Subculture Series 3, growth ([2]; NaOCl 200 ppm) | Subculture Series 4, growth ([2]; NaOCl 200 ppm) | Subculture Series 5, growth ([2]; NaOCl 200 ppm) | Subculture Series 6, growth ([2]; NaOCl 200 ppm) | Subculture Series 7, growth ([2]; NaOCl 200 ppm)
